“And” between values parts separate entries of the source, which are not always exact repeats. Identical values can stand only once. Inconclusive results and toxic doses are left out.

The assay deals with BDF1 mice, P388 leukemia ip, median survival T/C. The experiment in a line: NCI In Vivo Anticancer Drug Screen. Data for tumor model P388 Leukemia (intraperitoneal) in B6D2F1 (BDF1) mice. The conditions noted are these: endpoint: median survival time, higher = longer survival. The procedure, abridged:
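Survival ratio, drug arm over vehicle arm, in mice with a transplanted tumour.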

The mark [1] stands for this setting: dose: 50.0 mg/kg/injection, schedule: Q01DX009 (ip), vehicle: saline with Tween-80.
Setting [2] is: dose: 100.0 mg/kg/injection, schedule: Q01DX009 (ip), vehicle: saline with Tween-80.
Setting [3] is: dose: 25.0 mg/kg/injection, schedule: Q01DX009 (ip), vehicle: saline.
The mark [4] stands for this setting: dose: 25.0 mg/kg/injection, schedule: Q04DX003 (ip), vehicle: saline.
[5] abbreviates: dose: 50.0 mg/kg/injection, schedule: Q01DX009 (ip), vehicle: saline.
Setting [6] is: dose: 50.0 mg/kg/injection, schedule: Q04DX003 (ip), vehicle: saline.
The mark [7] stands for this setting: dose: 100.0 mg/kg/injection, schedule: Q01DX009 (ip), vehicle: saline.
Where [8] appears, read: dose: 100.0 mg/kg/injection, schedule: Q04DX003 (ip), vehicle: saline.
The mark [9] stands for this setting: dose: 200.0 mg/kg/injection, schedule: Q04DX003 (ip), vehicle: saline.
Setting [10] is: dose: 12.5 mg/kg/injection, schedule: Q01DX009 (ip), vehicle: saline with Tween-80.
The mark [11] stands for this setting: dose: 25.0 mg/kg/injection, schedule: Q01DX009 (ip), vehicle: saline with Tween-80.
Setting [12] is: dose: 100.0 mg/kg/injection, schedule: Q01DX009 (ip), vehicle: Klucel (hydroxypropylcellulose) (HPC).

Consider `CC[C@H]1CN2CCc3cc(OC)c(OC)cc3[C@@H]2C[C@@H]1C[C@H]1NCCc2cc(OC)c(OC)cc21`, for which the T/C is 150 % of control (dose: 2.0 mg/kg/injection, schedule: Q01DX005 (ip), vehicle: saline); 150 % of control (dose: 2.0 mg/kg/injection, schedule: Q01DX009 (ip), vehicle: saline); 90 % of control (dose: 3.0 mg/kg/injection, schedule: Q01DX009 (oral), vehicle: saline); 154 % of control and 160 % of control (dose: 3.5 mg/kg/injection, schedule: Q01DX010 (ip), vehicle: saline); 175 % of control (dose: 4.0 mg/kg/injection, schedule: Q01DX005 (ip), vehicle: saline); 220 % of control (dose: 4.0 mg/kg/injection, schedule: Q01DX009 (ip), vehicle: saline). Further, the T/C runs as follows: (dose: 4.0 mg/kg/injection, schedule: Q04DX003 (ip), vehicle: saline) 103 % of control; (dose: 4.0 mg/kg/injection, schedule: Q## X003 (ip), vehicle: saline) 115 % of control; (dose: 6.0 mg/kg/injection, schedule: Q01DX009 (oral), vehicle: saline) 86 % of control; (dose: 7.0 mg/kg/injection, schedule: Q01DX010 (ip), vehicle: saline) 222 % of control; (dose: 7.78 mg/kg/injection, schedule: Q04DX003 (ip), vehicle: saline) 160 % of control; (dose: 8.0 mg/kg/injection, schedule: Q01DX005 (ip), vehicle: saline) 90 % of control. The T/C was 163 % of control (dose: 8.0 mg/kg/injection, schedule: Q04DX003 (ip), vehicle: saline); 115 % of control (dose: 8.0 mg/kg/injection, schedule: Q## X002 (ip), vehicle: saline); 150 % of control (dose: 8.0 mg/kg/injection, schedule: Q## X003 (ip), vehicle: saline); 151 % of control and 158 % of control and 192 % of control (dose: 13.0 mg/kg/injection, schedule: Q04DX003 (ip), vehicle: saline); 232 % of control (dose: 16.0 mg/kg/injection, schedule: Q04DX003 (ip), vehicle: saline); 165 % of control (dose: 16.0 mg/kg/injection, schedule: Q## X002 (ip), vehicle: saline). For the same compound, the T/C was 185 % of control (dose: 16.0 mg/kg/injection, schedule: Q## X003 (ip), vehicle: saline); 160 % of control (dose: 16.0 mg/kg/injection, schedule: Q## X008 (ip), vehicle: saline); 165 % of control (dose: 16.0 mg/kg/injection, schedule: Q## X016 (ip), vehicle: saline); 215 % of control (dose: 16.0 mg/kg/injection, schedule: Q## X024 (ip), vehicle: saline); 185 % of control (dose: 18.0 mg/kg/injection, schedule: Q04DX003 (ip), vehicle: saline); 225 % of control and 235 % of control and 239 % of control (dose: 21.6 mg/kg/injection, schedule: Q04DX003 (ip), vehicle: saline). Besides, the T/C is 150 % of control (dose: 32.0 mg/kg/injection, schedule: Q01DX001 (ip), vehicle: saline); 210 % of control (dose: 32.0 mg/kg/injection, schedule: Q## X002 (ip), vehicle: saline); 90 % of control (dose: 32.0 mg/kg/injection, schedule: Q## X003 (ip), vehicle: saline); 150 % of control (dose: 32.0 mg/kg/injection, schedule: Q## X016 (ip), vehicle: saline).
Take `Cc1cc(C)c2nccc(/C=C/c3ccc(N(C)C)cc3)c2c1`: the T/C is 93 % of control under setting [1] and 103 % of control under setting [2].
As for `CCOC(=O)C(=CN(C)c1ccc([N+](=O)[O-])cc1)C(=O)OCC`, the T/C is 100 % of control (dose: 50.0 mg/kg/injection, schedule: Q01DX009 (ip), vehicle: other); 103 % of control (dose: 100.0 mg/kg/injection, schedule: Q01DX009 (ip), vehicle: other); 109 % of control (dose: 200.0 mg/kg/injection, schedule: Q01DX009 (ip), vehicle: other).
As to `COc1ccc2[nH]c(=O)c(C)c(C)c2c1`, the T/C is 98 % of control (dose: 3.12 mg/kg/injection, schedule: Q01DX009 (ip), vehicle: saline); 94 % of control (dose: 6.25 mg/kg/injection, schedule: Q01DX009 (ip), vehicle: saline); 94 % of control (dose: 12.5 mg/kg/injection, schedule: Q01DX009 (ip), vehicle: saline); 92 % of control under setting [3]; 107 % of control under setting [4]; 96 % of control and 117 % of control under setting [5]. The T/C runs as follows: under setting [6], 118 % of control; under setting [7], 94 % of control; under setting [8], 111 % of control; under setting [9], 100 % of control; (dose: 400.0 mg/kg/injection, schedule: Q04DX003 (ip), vehicle: saline) 115 % of control.
For the compound `Cc1cn(C2CC(O)C(CO)O2)c(=O)[nH]c1=O` (stereo not given), the T/C is 101 % of control (dose: 500.0 mg/kg/injection, schedule: Q04DX003 (ip), vehicle: saline); 111 % of control (dose: 750.0 mg/kg/injection, schedule: Q04DX003 (ip), vehicle: saline); 104 % of control (dose: 1000.0 mg/kg/injection, schedule: Q04DX003 (ip), vehicle: saline).
`CC(=O)[C@H]1CC[C@H]2[C@@H]3CCC4=CC(=O)[C@H](C)C[C@]4(C)[C@H]3C(=O)C[C@]12C`: the T/C under setting [2] is 90 % of control and the T/C (dose: 200.0 mg/kg/injection, schedule: Q01DX009 (ip), vehicle: saline with Tween-80) was 95 % of control.
As to `CC(O)C1CCCNC1` (stereo not given), the T/C under setting [5] was 110 % of control, the T/C under setting [7] is 100 % of control, the T/C under setting [8] is 108 % of control and the T/C under setting [9] is 104 % of control.
For `Clc1ccc(N=C(SSC(Cl)(Cl)Cl)SSC(Cl)(Cl)Cl)cc1`, the T/C is, setting by setting: under setting [10], 116 % of control; under setting [11], 103 % of control; under setting [1], 109 % of control.
For `COC(=O)/C=C\SC(=S)C1CCCC1=NC1CCCCC1` (stereo not given), the T/C reads like this: under setting [1], 102 % of control; under setting [2], 97 % of control.
`COc1ccc2[nH]c3c(C)c4cc[n+](CCCCCCCC[n+]5ccc6c(C)c7[nH]c8ccc(OC)cc8c7c(C)c6c5)cc4c(C)c3c2c1`: the T/C (dose: 6.25 mg/kg/injection, schedule: Q04DX003 (ip), vehicle: other) was 121 % of control.
On to `O=S1(=O)OCc2ccccc21`, for which the T/C is, setting by setting: (dose: 50.0 mg/kg/injection, schedule: Q01DX009 (ip), vehicle: Klucel (hydroxypropylcellulose) (HPC)) 108 % of control; (dose: 50.0 mg/kg/injection, schedule: Q04DX003 (ip), vehicle: Klucel (hydroxypropylcellulose) (HPC)) 86 % of control; under setting [12], 91 % of control; (dose: 100.0 mg/kg/injection, schedule: Q04DX003 (ip), vehicle: Klucel (hydroxypropylcellulose) (HPC)) 100 % of control and 104 % of control; (dose: 200.0 mg/kg/injection, schedule: Q04DX003 (ip), vehicle: Klucel (hydroxypropylcellulose) (HPC)) 92 % of control and 95 % of control.
As to `CCCCN(CCCC)CCCC#N`, the T/C is, setting by setting: under setting [3], 116 % of control; under setting [4], 100 % of control; under setting [5], 116 % of control; under setting [6], 96 % of control; (dose: 66.0 mg/kg/injection, schedule: Q01DX009 (ip), vehicle: saline with Tween-80) 120 % of control; under setting [8], 103 % of control.
As for `Cc1cc(O)c(C(c2ccccn2)c2c(O)cc(C)[nH]c2=O)c(=O)[nH]1`, the T/C is, setting by setting: under setting [10], 95 % of control; under setting [11], 90 % of control; under setting [1], 100 % of control.
In the case of `Cc1ccc2c(Br)cc(Br)c(O)c2n1`, the T/C is 115 % of control (dose: 10.0 mg/kg/injection, schedule: Q01DX009 (ip), vehicle: Klucel (hydroxypropylcellulose) (HPC)); 115 % of control (dose: 20.0 mg/kg/injection, schedule: Q01DX009 (ip), vehicle: Klucel (hydroxypropylcellulose) (HPC)); 115 % of control (dose: 40.0 mg/kg/injection, schedule: Q01DX009 (ip), vehicle: Klucel (hydroxypropylcellulose) (HPC)); 100 % of control under setting [12].
Consider `COc1ccc2c(c1C)CCC1(CO)CC(C)=CCC21` (stereo not given), for which the T/C is, setting by setting: (dose: 100.0 mg/kg/injection, schedule: Q01DX001 (ip), vehicle: saline sonified) 90 % of control; (dose: 200.0 mg/kg/injection, schedule: Q01DX001 (ip), vehicle: saline sonified) 90 % of control; (dose: 400.0 mg/kg/injection, schedule: Q01DX001 (ip), vehicle: saline sonified) 86 % of control.

For the origin of these results see PubChem BioAssay AID328 (DTP/NCI, 2004).
